Source: patent publication US20210338708A1, “METHOD FOR TREATMENT OF CORONAVIRUS INFECTION” (Renibus Therapeutics, Inc., priority 2020, published 2021)
Values joined by “and” are separate entries in the source; they are usually repeats but may differ in a detail not shown here. Identical values can stand only once. Like-named read-outs stand apart in the source and are kept apart here.

Experiments:
Vero E6 cell line = Vero E6 cell line in the presence of SARS-CoV-2; NCATS/NIH data; cited from earlier work
yellow fever virus = conditions: by inhibiting synthesis of NSP1; cited from earlier work
SARS-CoV-2 [1] = type: cell-based, SARS-CoV-2 (2019-nCoV/USA-WA1/2020 strain); conditions: for Plaque counts: replicates, viral replication, Vero E6, 24 h
SARS-CoV-2 [2] = experiment: Reduction of virus yield (Secondary VYR assay); type: cell-based, SARS-CoV-2 USA_WA1/2020; conditions: Vero 76, 1 hour pretreatment of compound and virus, read-out: TEST EC90
Protocol: Active compounds are further tested in a confirmatory assay. This assay is set up similar to the methodology described above only eight half-log 10 concentrations of inhibitor are tested for antiviral activity and cytotoxicity. After sufficient virus replication occurs (3 days for SARS-CoV-2), a sample of supernatant is taken from each infected well (three replicate wells are pooled) and tested immediately or held frozen at −80° C. for later virus titer determination. After maximum CPE is observed, the viable plates are stained with neutral red dye. The incorporated dye content is quantified as described above to generate the EC50 and CC50 values.
Virus yielded in the presence of test compound is titrated and compared to virus titers from the untreated virus controls. Titration of the viral samples (collected as described in the paragraph above) is performed by endpoint dilution (Reed, L. J., and H. Muench. “A Simple Method of Estimating Fifty Percent Endpoints.” Am J Hyg 27 (1938): 493-98.)
Serial 1/10 dilutions of virus are made and plated into 4 replicate wells containing fresh cell monolayers of Vero 76 cells. Plates are then incubated, and cells are scored for the presence or absence of virus after a distinct CPE is observed, and the CCID50 calculated using the Reed-Muench method. […]

SARS-CoV-2 [3] = type: cell-based, SARS-CoV-2 (2019-nCoV/USA-WA1/2020 strain); conditions: viral replication; for % reduction relative to virus control / Virus titer, Average: 11.11 μM; for Virus titer, Rep-1 to Rep-3: 100 μM
SARS-CoV-2 [4] = type: cell-based, SARS-CoV-2 (2019-nCoV/USA-WA1/2020 strain)
SARS-CoV-2 [5] = experiment: Reduction of virus-induced cytopathic effect (visual and neutral red) within secondary assay; type: cell-based, SARS-CoV-2 USA_WA1/2020; conditions: Vero 76, 1 hour pretreatment of compound and virus
Protocol: Confluent or near-confluent cell culture monolayers of Vero 76 cells are prepared in 96-well disposable microplates the day before testing. Cells are maintained in minimum essential medium (MEM) supplemented with 5% FBS. For antiviral assays the same medium is used but with FBS reduced to 2% and supplemented with 50-μg/ml gentamicin. Compounds are dissolved in DMSO, saline or the diluent requested by the submitter. […] The test compound is prepared at four serial log 10 concentrations, usually 0.1, 1.0, 10, and […] or μM (per sponsor preference). Lower concentrations are used when insufficient compound is supplied. Five microwells are used per dilution: three for infected cultures and two for uninfected toxicity cultures. Controls for the experiment consist of six microwells that are infected and not treated (virus controls) and six that are untreated and uninfected (cell controls) on every plate. A known active drug is tested in parallel as a positive control drug using the same method as is applied for test compounds. […]
Growth media is removed from the cells and the test compound is applied in 0.1 ml volume to wells at 2× concentration. […] The dye content in each well is quantified using a spectrophotometer at 540 nm wavelength. […]
Active compounds are further tested in a confirmatory assay. […] The incorporated dye content is quantified as described above to generate the EC50 and CC50 values.

dengue virus = conditions: by inhibiting synthesis of NSP1; cited from earlier work
SARS-CoV-2 [6] = type: cell-based, SARS-CoV-2 (2019-nCoV/USA-WA1/2020 strain); conditions: for Plaque counts: replicates, direct inactivation, Vero E6, 24 h

## C=CC1=C(C)c2cc3[n-]c(cc4[n-]c(cc5nc(cc1n2)C(C)=C5C=C)c(C)c4CCC(=O)O)c(CCC(=O)O)c3C.[Sn+2] [RBT-9, Stannous protoporphyrin]
Vero E6 cell line
  CC50: > 30 µM
Vero 76 cells
  CC50: 39 µM
Vero 76 cells; read-out: VIS CC50, visual, Vero 76
  CC50: 27 µM
Yellow fever virus
  inhibition of viral infection: inhibit viral infection
SARS-CoV-2 [1]; 0.005 μM
  Plaque counts: 363 and 342 and 223 and 294
SARS-CoV-2 [1]; 0.015 μM
  Plaque counts: 136 and 228 and 172 and 164
SARS-CoV-2 [1]; 0.046 μM
  Plaque counts: 170 and 167 and 182 and 259
SARS-CoV-2 [1]; 0.14 μM
  Plaque counts: 293 and 228 and 264 and 211
SARS-CoV-2 [1]; 0.41 μM
  Plaque counts: 292 and 243 and 309 and 304
SARS-CoV-2 [1]; 1.23 μM
  Plaque counts: 290 and 286 and 320 and 294
SARS-CoV-2 [1]; 3.70 μM
  Plaque counts: 130 and 125 (2×) and 153
SARS-CoV-2 [1]; 11.11 μM
  Plaque counts: 143 and 134 and 129 and 145
SARS-CoV-2 [1]; 33.33 μM
  Plaque counts: 89 and 99 and 78 and 79
SARS-CoV-2 [1]; 100 μM
  Plaque counts: 15 (2×) and 12 and 7
SARS-CoV-2 [1]; read-out: EC50, SARS-CoV-2 replication
  EC50: 45.7 µM
SARS-CoV-2 [2]
  EC90: 0.97 µM
SARS-CoV-2 [3]
  % reduction relative to virus control: 48%
  Virus titer, Average: 2 × 10^4 pfu/ml
  Virus titer, Rep-1 to Rep-3: not detected
SARS-CoV-2 [3]; listed as SnPP
  % reduction relative to virus control: about 48%
  Virus titer, Average: 2×10^4
  Virus titer, Rep-1 to Rep-3: could not be detected
SARS-CoV-2 [4]
  % reduction relative to virus control: 46.2%
  Virus titer, Average: 0.98×10^4 PFU/ml
SARS-CoV-2 [4]; 0.411 μM, direct inactivation
  % reduction relative to virus control: No reduction
  Virus titer, Average: 1.83 × 10^4 PFU/ml
  Virus titer, Rep-1 to Rep-3: 2.25 × 10^4 PFU/ml and 1.75 × 10^4 PFU/ml and 1.5 × 10^4 PFU/ml
SARS-CoV-2 [4]; 0.411 μM, direct inactivation, listed as SnPP
  % reduction relative to virus control: no reduction
SARS-CoV-2 [4]; 3.7 μM, direct inactivation
  % reduction relative to virus control: 98.6%
  Virus titer, Average: 0.25 × 10^4 PFU/ml
SARS-CoV-2 [4]; 3.7 μM, direct inactivation, listed as SnPP
  % reduction relative to virus control: About 98.6%
SARS-CoV-2 [5]; neutral red, read-out: NR EC50
  EC50: 1.5 µM
SARS-CoV-2 [5]; visual, read-out: VIS EC50
  EC50: 1.5 µM
Dengue virus
  inhibition of viral infection: inhibit viral infection
Vero E6 cells
  cytopathic effect (CPE) of SnPP: did not observe a cytopathic effect (CPE)
SARS-CoV-2 [6]; 0.005 μM
  Plaque counts: 203 and 304 and 260 and 236
SARS-CoV-2 [6]; 0.015 μM
  Plaque counts: 189 and 212
SARS-CoV-2 [6]; 0.046 μM
  Plaque counts: 222 and 332 and 256 and 196
SARS-CoV-2 [6]; 0.14 μM
  Plaque counts: 217 and 354 and 230 and 174
SARS-CoV-2 [6]; 0.41 μM
  Plaque counts: 259 and 194 and 205 and 235
SARS-CoV-2 [6]; 1.23 μM
  Plaque counts: 117 and 64 and 132 and 189
SARS-CoV-2 [6]; 3.70 μM
  Plaque counts: 0 (3×) and 48
SARS-CoV-2 [6]; 11.11 μM
  Plaque counts: 0
SARS-CoV-2 [6]; 33.33 μM
  Plaque counts: 0
SARS-CoV-2 [6]; 100 μM
  Plaque counts: 0
SARS-CoV-2 [6]; read-out: mean EC50, direct SARS-CoV-2 inactivation
  EC50: 1.32 µM

## CCC(CC)COC(=O)[C@H](C)N[P@](=O)(OC[C@H]1O[C@@](C#N)(c2ccc3c(N)ncnn23)[C@H](O)[C@@H]1O)Oc1ccccc1 [Remdesivir, reference compound]
SARS-CoV-2 [1]; 0.003 μM
  Plaque counts: 353 and 324
SARS-CoV-2 [1]; 0.008 μM
  Plaque counts: 195
SARS-CoV-2 [1]; 0.023 μM
  Plaque counts: 245
SARS-CoV-2 [1]; 0.07 μM
  Plaque counts: 233 and 192
SARS-CoV-2 [1]; 0.21 μM
  Plaque counts: 212 and 200
SARS-CoV-2 [1]; 0.62 μM
  Plaque counts: 274 and 270
SARS-CoV-2 [1]; 1.85 μM
  Plaque counts: 64 and 76
SARS-CoV-2 [1]; 5.56 μM
  Plaque counts: 0
SARS-CoV-2 [1]; 16.67 μM
  Plaque counts: 0
SARS-CoV-2 [1]; 50 μM
  Plaque counts: 0
